Converted amounts (≈) assume the structure as drawn. Blank lines part the entries; values can stand above or below the compound they belong to.
Columns and labels:
[1] = biological target: P2Y purinoceptor 1 (Homo sapiens, UniProt P47900); test: Antagonist activity at P2Y1 receptor (unknown origin); format: functional
[2] = biological target: Coagulation factor X (Homo sapiens, UniProt P00742); test: Binding affinity to FXa (unknown origin)
[3] = test system: Plasma; test: Anticoagulant activity in rabbit plasma assessed as prothrombin time; format: functional, Oryctolagus cuniculus
[4] = test system: Plasma; test: Anticoagulant activity in rabbit plasma assessed as thrombin time; format: functional, Oryctolagus cuniculus
[5] = test system: Plasma; test: Anticoagulant activity in rabbit plasma assessed as activated partial thromboplastin time; format: functional, Oryctolagus cuniculus
[6] = Antiplatelet activity in platelet (unknown origin) assessed as inhibition of ADP-induced platelet aggregation relative to control; format: functional, cell-based
[7] = Antiplatelet aggregation activity in rabbit platelet assessed as reduction in ADP-induced platelet aggregation; format: functional, cell-based; settings: Oryctolagus cuniculus
[8] = biological target: Coagulation factor X (Mus musculus, UniProt O88947); test: Inhibition of mouse FXa
[9] = test system: Plasma; test: Anticoagulant activity in mouse plasma assessed inhibition of thrombin-induced platelet aggregation; format: functional, cell-free
[10] = Antiplatelet activity in human platelet; format: functional, cell-based
[11] = test system: Plasma; test: Antithrombotic activity in rat plasma; format: functional
[12] = test system: Plasma; test: Antiplatelet activity in rabbit plasma assessed as inhibition of arachidonic acid induced platelet aggregation; format: functional, cell-free; settings: Oryctolagus cuniculus
[13] = species on record: Rattus norvegicus; test: Antiplatelet aggregration activity in arteriovenous bypass thrombosis rat model assessed as aggregation inhibition rate relative to control; format: functional
[14] = test system: Platelet; test: Potency index, ratio of IC50 for MCI-154 to IC50 for test compound against antiplatelet activity in human platelet; format: functional
[15] = Anticoagulant activity in human platelet assessed as reduction in thrombin-induced platelet aggregation in presence of ADP by measuring turbidity; format: functional, cell-based
[16] = test system: Plasma; test: Antiplatelet activity in plasma (unknown origin) assessed as reduction of thrombin-induced platelet aggregation by aggregometer; format: functional, cell-free; settings: Homo sapiens
[17] = test system: Plasma; test: Antiplatelet activity in plasma (unknown origin) assessed as reduction of ADP-induced platelet aggregation by aggregometer; format: functional, cell-free; settings: Homo sapiens
[18] = test system: Plasma; test: Antiplatelet aggregation activity in rabbit plasma incubated for 5 mins; format: functional, cell-free; settings: Oryctolagus cuniculus
[19] = test system: Plasma (Mus musculus); test: Anticoagulant activity in mouse plasma assessed as prothrombin time
[20] = Antithrombotic activity in fresh platelet rich plasma; format: functional, cell-based

P2Y purinoceptor 1, sequence (P47900 whole entry): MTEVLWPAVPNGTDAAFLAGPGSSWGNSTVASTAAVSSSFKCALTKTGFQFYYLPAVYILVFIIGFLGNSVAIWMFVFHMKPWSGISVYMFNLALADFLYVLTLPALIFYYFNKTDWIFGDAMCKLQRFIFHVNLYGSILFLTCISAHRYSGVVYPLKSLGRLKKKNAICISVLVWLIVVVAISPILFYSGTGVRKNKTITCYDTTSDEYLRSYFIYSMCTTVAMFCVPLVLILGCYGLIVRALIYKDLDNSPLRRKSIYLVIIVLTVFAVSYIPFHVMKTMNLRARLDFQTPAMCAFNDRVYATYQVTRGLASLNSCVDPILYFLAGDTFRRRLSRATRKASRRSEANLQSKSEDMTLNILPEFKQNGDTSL
Coagulation factor X (Mus musculus, UniProt O88947), sequence (O88947 41-180 limits assumed): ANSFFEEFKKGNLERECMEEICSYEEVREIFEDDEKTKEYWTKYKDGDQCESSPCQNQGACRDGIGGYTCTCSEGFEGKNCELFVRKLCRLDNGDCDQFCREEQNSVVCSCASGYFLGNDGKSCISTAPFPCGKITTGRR
Coagulation factor X (Mus musculus, UniProt O88947), sequence (O88947 232-481 limits assumed): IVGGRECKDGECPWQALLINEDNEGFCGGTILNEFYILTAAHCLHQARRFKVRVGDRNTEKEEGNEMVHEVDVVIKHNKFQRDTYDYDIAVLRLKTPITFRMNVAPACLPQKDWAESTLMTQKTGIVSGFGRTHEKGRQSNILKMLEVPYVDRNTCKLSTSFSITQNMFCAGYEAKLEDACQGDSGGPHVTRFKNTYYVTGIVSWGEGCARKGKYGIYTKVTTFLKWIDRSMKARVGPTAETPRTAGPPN
Coagulation factor X (Homo sapiens, UniProt P00742), sequence (P00742 41-179 limits assumed): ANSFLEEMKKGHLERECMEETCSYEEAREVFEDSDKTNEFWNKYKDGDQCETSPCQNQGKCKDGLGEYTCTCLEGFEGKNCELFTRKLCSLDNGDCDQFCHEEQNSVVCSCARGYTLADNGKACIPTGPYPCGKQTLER
Coagulation factor X (Homo sapiens, UniProt P00742), sequence (P00742 235-488 limits assumed): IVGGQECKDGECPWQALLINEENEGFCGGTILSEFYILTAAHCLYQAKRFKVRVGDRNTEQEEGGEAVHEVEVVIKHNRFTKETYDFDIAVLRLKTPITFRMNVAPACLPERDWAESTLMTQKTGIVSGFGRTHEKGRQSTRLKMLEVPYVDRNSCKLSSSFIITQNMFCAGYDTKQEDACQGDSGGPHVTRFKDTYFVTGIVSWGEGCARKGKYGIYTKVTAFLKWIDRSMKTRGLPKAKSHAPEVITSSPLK

IC50 [1]: 0.48 µM
Structure (SMILES): CNc1nc(Cl)nc2c1ncn2CC(COP(=O)(O)O)COP(=O)(O)O

IC50 [1]: 0.84 µM
Structure (SMILES): CNc1nc(Cl)nc2c1ncn2CCC(COP(=O)(O)O)COP(=O)(O)O

Ki [2]: 1 µM
Structure (SMILES): COc1ccc(C(=O)Nc2ccccc2NC(=O)c2ccc(OC)cc2)cc1

IC50 [1]: 1.09 µM
Structure (SMILES): CNc1ncnc2c1ncn2CC(COP(=O)(O)O)COP(=O)(O)O

IC50 [8]: 0.0021 µM
Structure (SMILES): CC(=N)N1CCC(Oc2ccc3c(c2)C(=O)NS(=O)(=O)N3Cc2ccc3ccc(C(=N)N)cc3c2)CC1

IC50 [10]: 0.06 µM
Structure (SMILES): CC1CC(=O)NN=C1c1ccc(NC(=O)Cn2ccnc2)cc1 (centres undefined)

IC50 [8]: 0.0025 µM
Structure (SMILES): CC(=N)N1CCC(Oc2ccc3c(c2)C(=O)NS(=O)(=O)N3CC(=O)Nc2cccc(C(=N)N)c2)CC1

IC50 [12]: 17 µg/mL (≈ 39.8 µM)
Structure (SMILES): O=C(CC1Nc2c(ccc(Cl)c2[N+](=O)[O-])OC1=O)c1ccc(Br)cc1 (centres undefined)

IC50 [8]: 0.0028 µM
Structure (SMILES): CC(=N)N1CCC(Oc2ccc3c(c2)C(=O)NS(=O)(=O)N3C/C=C/c2cccc(C(=N)N)c2)CC1

IC50 [10]: 0.03 µM
Structure (SMILES): CCCN(CCC)CC(=O)Nc1ccc(C2=NNC(=O)CC2)cc1
Ratio IC50 [14]: 10

IC50 [10]: 0.085 µM
Structure (SMILES): CCCN(CCC)CC(=O)Nc1ccc(C2=NNC(=O)CC2C)cc1 (centres undefined)

IC50 [15]: 66 µM
Structure (SMILES): O=C1CNC(=O)C(Cc2c[nH]cn2)N1 (centres undefined)

IC50 [16]: 22.2 µM
IC50 [17]: 41.7 µM
Structure (SMILES): O=C(O)C(Cc1ccc2c(c1)OCC(COCC1CCNCC1)O2)NS(=O)(=O)c1ccccc1 (centres undefined)

IC50 [9]: 0.32 µM
Structure (SMILES): CCOC(=O)CCN(C(=O)c1ccc2c(c1)nc1n2CCN(CC(=O)OCC)C1Cc1ccc(/C(N)=N/CC(=O)OCC)cc1)c1ccccc1 (centres undefined)

IC50 [20]: 0.2 µM
Structure (SMILES): O=C(CC1CCCCCCCCCNC(=O)OCOC(=O)C(Cc2ccccc2)NC1=O)OCc1ccccc1 (centres undefined)

Second part, the compound before the results:

Structure (SMILES): COc1ccc(-c2oc3cc(O)cc(O)c3c(=O)c2O)cc1OC
Time [3]: 58.7 s
Time [4]: 9.9 s
Time [5]: 5.8 s

Structure (SMILES): COc1cc(OC)c2c(=O)c(O)c(-c3ccc(O)c(O)c3)oc2c1
Time [3]: 67.6 s
Time [4]: 21.8 s
Time [5]: 6.9 s

Structure (SMILES): CNc1ncnc2c1ncn2CCC(COP(=O)(O)O)COP(=O)(O)O
IC50 [1]: 1.6 µM

Structure (SMILES): COc1cc(O)cc2oc(-c3ccc(O)c(O)c3)c(O)c(=O)c12
Time [3]: 49.2 s
Time [4]: 19.4 s
Time [5]: 7.6 s

Structure (SMILES): CC(C)[C@](O)(C(=O)OCC1=CCN2CC[C@@H](O)[C@@H]12)[C@H](C)O
IC50 ([6]; platelet): 0.49 µM
IC50 [7]: 12.5 µM

Structure (SMILES): CCOC(=O)CCN(C(=O)c1ccc2c(c1)nc1n2CCN(CC(=O)OC(C)(C)C)C1Cc1ccc(/C(N)=N/CC(=O)OC(C)(C)C)cc1)c1ccccc1 (centres undefined)
IC50 [9]: 0.11 µM

Structure (SMILES): N#Cc1ccc(SC2SC[C@H](O)[C@@H](O)[C@H]2O)cc1 (some centres undefined)
ED50 [11]: 15 mg/kg

Structure (SMILES): COc1cc(/C=C/C(=O)OCc2c(-c3ccccc3)no[n+]2[O-])ccc1OC(=O)c1ccccc1OC(C)=O
inhibition (INH) [13]: 12.1%

Structure (SMILES): COc1cc(/C=C/C(=O)OC2COC3C(O[N+](=O)[O-])COC23)ccc1OC(=O)c1ccccc1OC(C)=O (centres undefined)
inhibition (INH) [13]: 28.7%

Structure (SMILES): CC(=O)Oc1ccccc1C(=O)Nc1n[n+](-c2ccc(C)cc2)no1
inhibition (INH) [6]: 30.7%

Structure (SMILES): CCCCCCCCN1CCN(c2ccc(C3=NNC(=O)CC3)cc2)CC1
IC50 [7]: 2.5 µM

Structure (SMILES): CCN1C(=O)COc2cc(NC(=O)c3ccccc3)ccc21
IC50 [18]: 8.99 µM

Structure (SMILES): COC(=O)c1ccccc1OCCOc1ccc2c(C)cc(=O)oc2c1
Time [19]: 8.44 s

Structure (SMILES): Cc1ccc2c(c1)NC(CC(=O)c1ccccc1)C(=O)O2 (centres undefined)
IC50 [12]: 18 µg/mL (≈ 63.8 µM)

Structure (SMILES): N#Cc1ccc(S[C@H]2C[C@@H](O)[C@H](O)CS2)cc1
ED50 [11]: 7 mg/kg
